Data set [1] is classed as physicochemical. The note with it: pH 11.03. The method, then: Polymer-polymer aqueous two-phase systems were prepared using maltodextrin (mdx) in combination with PEG 4000 and PEG 8000. […] Demineralised water was added to yield a net weight of 200 g of solution.
Control/base solutions were prepared to be used as a baseline in the spectrophotometer by preparing the same solutions described above, but without resveratrol.
The aqueous two-phase systems were formed by continuously stirring the solutions using a magnetic stirrer for 30 minutes. […] In both the extraction solution and in the base solution two distinct phases were formed. 1 ml of the bottom phase of the extraction solution was separated from the system using a pipette tapped into an Erlenmeyer flask and 1 ml of the bottom phase of the blank solution was poured into a separate Erlenmeyer flask. The solutions were diluted by adding 50 ml of demineralised water to each.
Cuvettes containing the base solution were placed in the spectrophotometer and the system baselined. One of the cuvettes was then removed, rinsed with the diluted top phase of the extraction solution, and filled with the solution. […] The absorbance at the peak was then used to quantify the resveratrol content.
The resveratrol content of the top phase was quantified using the same methodology as for the bottom phase, using the top phase of the base solution to baseline the spectrophotometer. […]

For data set [2] the following is noted: water; cited from earlier work.
Data set [3] is described as follows: Partitioning of resveratrol from biomass (grape pomace) in polymer-salt (PEG-salt) aqueous two-phase system. It counts as physicochemical. The text has this: The partitioning of the polyphenolic biomolecule can be quantified using parameters such as the partition coefficient (K) and the yield (Y). The partition coefficient reflects the extent of separation of the polyphenolic compound into the polymer phase. It is defined as the ratio of […]. Partition coefficients of more than 1 indicate a higher concentration of the specific molecule in the top phase. The partition coefficient (K) is calculated with equation 5 in which cT is the concentration of the molecule in the top phase and CB is the concentration of the molecule in the bottom phase. K = (CT)/(CB) [formula]
Polymer-salt aqueous two-phase systems with PEG of different molecular weights were prepared using PEG 400 (Mw =400 g/mol), PEG 1000 (Mw =1000 g/mol), PEG 4000 (Mw =4000 g/mol), PEG 8000 (Mw =8000 g/mol), and PEG 10000 (Mw =10 000 g/mol).
Two different ATP systems with different polymer and salt concentrations were investigated. System A contains 11 wt% PEG and 26 wt% ammonium sulphate and system B contains 13 wt% PEG and 13 wt% ammonium sulphate. Table 2. Quantities of materials used to extract resveratrol in systems A and B
20 ml pomace was added to a polymer-salt ATP systems comprising 20 ml water, 5 g PEG 8000 (11 wt%) and 2.5 g (7 wt%), 5 g (13 wt%), 8 g (19 wt%) and 12 g (26 wt%) ammonium salt, respectively.
20 ml pomace was added to a polymer-salt ATP systems comprising 11 wt% PEG 8000 and 26 wt% tartrate, citrate, sulphate and phosphate salt solutions (20 ml water), respectively. The partition coefficient and percentage extraction of resveratrol to the PEG top phase was determined for each of the different types of salts.
The bottom phase of the ATPS (consisting of the salt solution) therefore only contained trace amounts of resveratrol, with the remaining resveratrol still contained in the biomass. It was therefore assumed that within the bottom phases exiting the polymer-salt ATPS reactor, that the remaining resveratrol that was not extracted would be contained within the raw biomass of grape pomace and canes, and not in the salt solution.

Test in data set [4]: as above
It counts as physicochemical. Conditions: about 10% (w/w) PEG 8000 and about 15% (w/w) tartrate salt; raw biomass.

Take `Oc1ccc(C=Cc2cc(O)cc(O)c2)cc1` [resveratrol]: the “partition coefficient of the system” value in data set [1] was 1.36. For the same compound, in data set [2], the aqueous solubility is reported as 3 mg/100 ml. Besides, the “Partition Coefficient” value in data set [3] (11 wt% PEG 8000, Ammonium sulphate, 25,5 wt% salt, to PEG top phase) is 351; in data set [3] (11 wt% PEG 8000, Potassium hydrogen phosphate trihydrate, 25,5 wt% salt, to PEG top phase) it was 218; in data set [3] (11 wt% PEG 8000, Potassium sodium tartrate tetrahydrate, 25,5 wt% salt, to PEG top phase), 177; in data set [3] (11 wt% PEG 8000, Tri-sodium citrate dihydrate, 25,5 wt% salt, to PEG top phase), 79; in data set [3] (PEG 8000 (11 wt%), 7 wt% ammonium sulphate, to PEG top phase), 78; in data set [3] (PEG 8000 (11 wt%), 13 wt% ammonium sulphate, to PEG top phase), 242. The “Partition Coefficient” value came to 334 in data set [3] (PEG 8000 (11 wt%), 19 wt% ammonium sulphate, to PEG top phase); 351 in data set [3] (PEG 8000 (11 wt%), 26 wt% ammonium sulphate, to PEG top phase); 164 in data set [3] (System A: 11 wt% PEG, 26 wt% ammonium sulphate, PEG 400, to PEG top phase); 177 in data set [3] (System A: 11 wt% PEG, 26 wt% ammonium sulphate, PEG 1000, to PEG top phase); 341 in data set [3] (System A: 11 wt% PEG, 26 wt% ammonium sulphate, PEG 4000, to PEG top phase); 351 in data set [3] (System A: 11 wt% PEG, 26 wt% ammonium sulphate, PEG 8000, to PEG top phase). Further, the “Partition Coefficient” value was 174 in data set [3] (System A: 11 wt% PEG, 26 wt% ammonium sulphate, PEG 10000, to PEG top phase); 33 in data set [3] (System B: 13 wt% PEG, 13 wt% ammonium sulphate, PEG 4000, to PEG top phase); 242 in data set [3] (System B: 13 wt% PEG, 13 wt% ammonium sulphate, PEG 8000, to PEG top phase); 200 in data set [3] (System B: 13 wt% PEG, 13 wt% ammonium sulphate, PEG 10000, to PEG top phase). The “resveratrol partitioning to the top phase” value in data set [4] was 99.6%.

Source of the values: patent EP3760291B1 (Stellenbosch University, priority 2019, dated 2021).
